# Reference: paper PMC5852267, “Influence of quaternary cation compound on the size of the Escherichia coli small multidrug resistance protein, EmrE” (Biochemistry and Biophysics Reports, 2018)
# Target: T1, EmrE (EmrE-Myc-His6; His6-myc-EmrE) (Escherichia coli, UniProt P23895)
# T1 construct: plasmid pTZEmrEmH6; E. coli C43(DE3); dimer considered minimal functional unit
# Assay: biochemical
# Type: binding
# Settings: not given
# T1 sequence (P23895 whole entry): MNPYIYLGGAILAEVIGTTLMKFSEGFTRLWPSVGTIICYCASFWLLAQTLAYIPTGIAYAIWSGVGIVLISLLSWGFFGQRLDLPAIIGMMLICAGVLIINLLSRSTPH
row,Compound,Kd [µM]
1,"Nc1ccc2cc3ccc(N)cc3nc2c1 [PRO, Proflavine]",14 ± 5
2,"CC[n+]1c(-c2ccccc2)c2cc(N)ccc2c2ccc(N)cc21 [EB, Ethidium bromide]",1 ± 0.3
3,"CCN=c1cc2oc3cc(NCC)c(C)cc3c(-c3ccccc3C(=O)OCC)c-2cc1C [RH, Rhodamine 6 G]",12 ± 1.4
4,"CN(C)c1ccc(C(=C2C=CC(=[N+](C)C)C=C2)c2ccc(N(C)C)cc2)cc1 [CV, Crystal Violet]",16 ± 5.7
5,"Cc1cc(N)c2ccccc2[n+]1CCCCCCCCCC[n+]1c(C)cc(N)c2ccccc21 [DC, Dequalinium chloride]",11 ± 2.2

# Same assay, conditions: read-out: Kd
row,Compound,Kd [µM]
1,"c1ccc([P+](c2ccccc2)(c2ccccc2)c2ccccc2)cc1 [TPP, Tetraphenylphosphonium chloride]",5 ± 3.7
2,"C[n+]1ccc(-c2cc[n+](C)cc2)cc1 [MV, Methyl Viologen]",179 ± 19.9
3,"CCCCCCCCCCCCCCCC[N+](C)(C)Cc1ccccc1 [CTC, Cetalkonium chloride (Banjela) (16 Chain)]",407 ± 133
